The test system of one series is Gardnerella. The series can be described thus: Gardnerella growth inhibition. In kind it is cell-based. On the procedure: The plates were then incubated at 37° C. overnight and then the plates were read on a spectrophotometer at an absorbance of OD600 nm to determine the turbidity of the solution. Decreased turbidity is indicative of inhibition of bacterial growth.
Complement activation was assayed by measuring the production of C5a using ELISA methodology. […] The associated inflammation causes the symptoms of bacterial vaginosis and increases the risk of HIV-transmission by disrupting normal barrier defenses in the vagina.

The format of series [1] is biochemical, human. As to conditions: 0.77 mM peptide in factor B-depleted serum. On the procedure:
(§1) Peptides were diluted to 0.77 mM in factor B-depleted human sera (Complement Technologies, Inc.) and incubated for 1 hour at 37° C. These peptides were then diluted with GVBS^++ to equal 2.5% serum, of which 0.25 ml was combined with 0.4 ml of GVBS^++ and 0.1 ml of sensitized sheep red blood cells (RBCs) and again incubated for 1 hour at 37° C. The procedure was stopped by the addition of 4.0 ml of GVBS^−− centrifuged for 5 minutes at 1,620×g, and the absorbance of the supernatants was read at 412 nm in a spectrophotometer. The percent lysis of each sample was standardized to that of the serum only control.
(§2) The final concentration of peptide in factor B-depleted serum was 0.77 mM. Each peptide was evaluated in triplicate and the mean values are reported. […] In the hemolytic assay, soluble peptides are standardized to water and insoluble peptides standardized to DMSO.
(§3) Polar Assortant peptides were serially diluted in undiluted factor B-depleted human sera (Complement Technologies, Inc.) and incubated for 1 hour at 37° C. Water, GVBS^++ and DMSO were included as controls. These peptides were then diluted with GVBS^++ to equal 2.5% serum, of which 0.25 ml was combined with 0.4 ml of GVBS^++ and 0.1 ml of sensitized sheep red blood cells (RBCs) and again incubated for 1 hour at 37° C. The procedure was stopped by the addition of 4.0 ml of GVBS^−−, centrifuged for 5 minutes at 1,620×g, and the absorbance of the supernatants was read at 412 nm in a spectrophotometer. The percent lysis of each sample was standardized to that of the serum only control.
(§4) The final concentration of peptide in factor B-depleted serum was 0.77 mM. […] In the hemolytic assay, soluble peptides were standardized to water and insoluble peptides standardized to DMSO.
(§5) The final concentration of peptide in factor B-depleted serum was 0.77 mM. […] In the hemolytic assay, soluble peptides are standardized to water and insoluble peptides standardized to DMSO.

A short description of another series: Solubility in water. In kind it is physicochemical.
The test system of series [2] is complement activation in factor B-depleted human sera. It is filed as biochemical. Particulars: factor B-depleted serum. On the procedure: as §1, §2, §3, §4, §5
[3] abbreviates: standardized to water or DMSO, Table 6.

Like-named read-outs stand apart in the source and are kept apart here. Square brackets hold non-standard residues; d marks the D form. Ends that are not written are not given here. Peptide text beside a SMILES is read from it. Sar = CNCC(=O)O

`CC[C@H](C)[C@H](N)C(=O)N[C@@H](C)C(=O)N[C@@H](CC(C)C)C(=O)N(C)CC(=O)N[C@@H](CC(C)C)C(=O)N[C@@H](CCC(=O)O)C(=O)N1CCC[C@H]1C(=O)N[C@H](C(=O)N[C@@H](CS)C(=O)N[C@@H](CS)C(=O)N[C@@H](CCC(N)=O)C(=O)N[C@@H](CCC(=O)O)C(=O)N[C@@H](CCCNC(=N)N)C(=O)N[C@@H](C)C(=O)N[C@@H](C)C(=O)O)[C@@H](C)CC` [PA-I4Sar] (H-IAL[Sar]LEPICCQERAA-OH): in the series on Gardnerella, the “Inhibition of Gardnerella growth” value is given as “inhibited the growth”.

For the molecule `CC[C@H](C)[C@H](N)C(=O)N[C@@H](C)C(=O)N(C)CC(=O)N[C@H](C(=O)N[C@@H](CC(C)C)C(=O)N[C@@H](CCC(=O)O)C(=O)N1CCC[C@H]1C(=O)N[C@H](C(=O)N[C@@H](CS)C(=O)N[C@@H](CS)C(=O)N[C@@H](CCC(N)=O)C(=O)N[C@@H](CCC(=O)O)C(=O)N[C@@H](CCCNC(=N)N)C(=O)N[C@@H](C)C(=O)N[C@@H](C)C(=O)O)[C@@H](C)CC)[C@@H](C)CC` [PA-L3Sar] (H-IA[Sar]ILEPICCQERAA-OH), in the series with Gardnerella, the “Inhibition of Gardnerella growth” value is recorded as “inhibited the growth”.

Turning to `CC[C@H](C)[C@H](N)C(=O)N[C@@H](C)C(=O)N[C@@H](CC(C)C)C(=O)N[C@H](C(=O)N(C)CC(=O)N[C@@H](CCC(=O)O)C(=O)N1CCC[C@H]1C(=O)N[C@H](C(=O)N[C@@H](CS)C(=O)N[C@@H](CS)C(=O)N[C@@H](CCC(N)=O)C(=O)N[C@@H](CCC(=O)O)C(=O)N[C@@H](CCCNC(=N)N)C(=O)N[C@@H](C)C(=O)N[C@@H](C)C(=O)O)[C@@H](C)CC)[C@@H](C)CC` [PA-L5Sar] (H-IALI[Sar]EPICCQERAA-OH), in the series with Gardnerella, the “Inhibition of Gardnerella growth” value was “inhibited the growth”.

On to `CC[C@H](C)[C@H](NC(=O)[C@H](CC(C)C)NC(=O)[C@H](C)N)C(=O)N[C@@H](CC(C)C)C(=O)N[C@@H](CCC(=O)O)C(=O)N1CCC[C@H]1C(=O)N[C@H](C(=O)N[C@@H](CS)C(=O)N[C@@H](CS)C(=O)N(C)CC(=O)N[C@@H](CCC(=O)O)C(=O)N[C@@H](CCCNC(=N)N)C(=O)N[C@@H](C)C(=O)N[C@@H](C)C(=O)O)[C@@H](C)CC` [PA-Q11Sar] (H-ALILEPICC[Sar]ERAA-OH; N-terminus and C-terminus assumed), for which, in series [1] (human, mean of triplicate, standardized to water (soluble) or DMSO (insoluble)), the hemolysis amounted to 3.02%. The Solubility in water result in “Solubility in water” (Table 5, sarcosine substitution peptides) is reported as “No”.

As to `CC[C@H](C)[C@H](N)C(=O)N[C@@H](C)C(=O)N[C@@H](CC(C)C)C(=O)N[C@H](C(=O)N[C@@H](CC(C)C)C(=O)N[C@@H](CCC(=O)O)C(=O)N1CCC[C@H]1C(=O)N[C@H](C(=O)N[C@@H](CS)C(=O)N[C@@H](CS)C(=O)N[C@@H](CCC(N)=O)C(=O)N[C@@H](CCC(=O)O)C(=O)N[C@@H](CCCNC(=N)N)C(=O)N[C@@H](C)C(=O)N[C@@H](C)C(=O)NCCOCCOCCC(=O)O)[C@@H](C)CC)[C@@H](C)CC` [PA-dPEG02], in series [1] (setting [3]), the hemolysis amounted to 11.6%.

Molecule `CC[C@H](C)[C@H](N)C(=O)N[C@@H](C)C(=O)N[C@@H](CC(C)C)C(=O)N[C@H](C(=O)N[C@@H](CC(C)C)C(=O)N[C@@H](CCC(=O)O)C(=O)N1CCC[C@H]1C(=O)N[C@H](C(=O)N[C@@H](CS)C(=O)N[C@@H](CS)C(=O)N[C@@H](CCC(N)=O)C(=O)N[C@@H](CCC(=O)O)C(=O)N[C@@H](CCCNC(=N)N)C(=O)N[C@@H](C)C(=O)N[C@@H](C)C(=O)NCCOCCOCCOCCC(=O)O)[C@@H](C)CC)[C@@H](C)CC` [PA-dPEG03] yielded a hemolysis in series [1] (setting [3]) of 12.6%.

Molecule `CC[C@H](C)[C@H](N)C(=O)N[C@@H](C)C(=O)N[C@@H](CC(C)C)C(=O)N[C@H](C(=O)N[C@@H](CC(C)C)C(=O)N[C@@H](CCC(=O)O)C(=O)N1CCC[C@H]1C(=O)N[C@H](C(=O)N[C@@H](CS)C(=O)N[C@@H](CS)C(=O)N[C@@H](CCC(N)=O)C(=O)N[C@@H](CCC(=O)O)C(=O)N[C@@H](CCCNC(=N)N)C(=O)N[C@@H](C)C(=O)N[C@@H](C)C(=O)NCCOCCOCCOCCOCCC(=O)O)[C@@H](C)CC)[C@@H](C)CC` [PA-dPEG04] returned a hemolysis in series [1] (setting [3]) of 12.4%.

`CC[C@H](C)[C@H](N)C(=O)N[C@@H](C)C(=O)N[C@@H](CC(C)C)C(=O)N[C@H](C(=O)N[C@@H](CC(C)C)C(=O)N[C@@H](CCC(=O)O)C(=O)N1CCC[C@H]1C(=O)N[C@H](C(=O)N[C@@H](CS)C(=O)N[C@@H](CS)C(=O)N[C@@H](CCC(N)=O)C(=O)N[C@@H](CCC(=O)O)C(=O)N[C@@H](CCCNC(=N)N)C(=O)N[C@@H](C)C(=O)N[C@@H](C)C(=O)NCCOCCOCCOCCOCCOCCOCCC(=O)O)[C@@H](C)CC)[C@@H](C)CC` [PA-dPEG06] had a hemolysis in series [1] (setting [3]) of 44.8%.

In series [1] (setting [3]), `CC[C@H](C)[C@H](N)C(=O)N[C@@H](C)C(=O)N[C@@H](CC(C)C)C(=O)N[C@H](C(=O)N[C@@H](CC(C)C)C(=O)N[C@@H](CCC(=O)O)C(=O)N1CCC[C@H]1C(=O)N[C@H](C(=O)N[C@@H](CS)C(=O)N[C@@H](CS)C(=O)N[C@@H](CCC(N)=O)C(=O)N[C@@H](CCC(=O)O)C(=O)N[C@@H](CCCNC(=N)N)C(=O)N[C@@H](C)C(=O)N[C@@H](C)C(=O)NCCOCCOCCOCCOCCOCCOCCOCCOCCC(=O)O)[C@@H](C)CC)[C@@H](C)CC` [PA-dPEG08] yielded a hemolysis of 34.7%.

`CC[C@H](C)[C@H](N)C(=O)N[C@@H](C)C(=O)N[C@@H](CC(C)C)C(=O)N[C@H](C(=O)N[C@@H](CC(C)C)C(=O)N[C@@H](CCC(=O)O)C(=O)N1CCC[C@H]1C(=O)N[C@H](C(=O)N[C@@H](CS)C(=O)N[C@@H](CS)C(=O)N[C@@H](CCC(N)=O)C(=O)N[C@@H](CCC(=O)O)C(=O)N[C@@H](CCCNC(=N)N)C(=O)N[C@@H](C)C(=O)N[C@@H](C)C(=O)NCCOCCOCCOCCOCCOCCOCCOCCOCCOCCOCCOCCOCCC(=O)O)[C@@H](C)CC)[C@@H](C)CC` [PA-dPEG12] showed a hemolysis in series [1] (setting [3]) of 11.4%.

Take `CC[C@H](C)[C@H](N)C(=O)N[C@@H](C)C(=O)N[C@@H](CC(C)C)C(=O)N[C@H](C(=O)N[C@@H](CC(C)C)C(=O)N[C@@H](CCC(=O)O)C(=O)N1CCC[C@H]1C(=O)N[C@H](C(=O)N[C@@H](CS)C(=O)N[C@@H](CS)C(=O)N[C@@H](CCC(N)=O)C(=O)N[C@@H](CCC(=O)O)C(=O)N[C@@H](CCCNC(=N)N)C(=O)N[C@@H](C)C(=O)N[C@@H](C)C(=O)NCCOCCOCCOCCOCCOCCOCCOCCOCCOCCOCCOCCOCCOCCOCCOCCOCCC(=O)O)[C@@H](C)CC)[C@@H](C)CC` [PA-dPEG16]: the hemolysis in series [1] (setting [3]) worked out at 12%.

Take `CC[C@H](C)[C@H](N)C(=O)N[C@@H](C)C(=O)N[C@@H](CC(C)C)C(=O)N[C@H](C(=O)N[C@@H](CC(C)C)C(=O)N[C@@H](CCC(=O)O)C(=O)N1CCC[C@H]1C(=O)N[C@H](C(=O)N[C@@H](CS)C(=O)N[C@@H](CS)C(=O)N[C@@H](CCC(N)=O)C(=O)N[C@@H](CCC(=O)O)C(=O)N[C@@H](CCCNC(=N)N)C(=O)N[C@@H](C)C(=O)N[C@@H](C)C(=O)NCCOCCOCCOCCOCCOCCOCCOCCOCCOCCOCCOCCOCCOCCOCCOCCOCCOCCOCCOCCOCCC(=O)O)[C@@H](C)CC)[C@@H](C)CC` [PA-dPEG20]: the hemolysis in series [1] (setting [3]) was found to be 11.4%.

`CC[C@H](C)[C@H](N)C(=O)N[C@@H](C)C(=O)N[C@@H](CC(C)C)C(=O)N[C@H](C(=O)N[C@@H](CC(C)C)C(=O)N[C@@H](CCC(=O)O)C(=O)N1CCC[C@H]1C(=O)N[C@H](C(=O)N[C@@H](CS)C(=O)N[C@@H](CS)C(=O)N[C@@H](CCC(N)=O)C(=O)N[C@@H](CCC(=O)O)C(=O)N[C@@H](CCCNC(=N)N)C(=O)N[C@@H](C)C(=O)N[C@@H](C)C(=O)O)[C@@H](C)CC)[C@@H](C)CC` [PA] yielded a hemolysis in series [1] (mean of triplicate, standardized to water (soluble) or DMSO (insoluble)) of 3.15%.

For the molecule `CC[C@H](C)[C@H](N)C(=O)N[C@@H](C)C(=O)N[C@@H](CC(C)C)C(=O)N[C@H](C(=O)N[C@@H](CC(C)C)C(=O)N[C@@H](CCC(=O)O)C(=O)N(C)CC(=O)N[C@H](C(=O)N[C@@H](CS)C(=O)N[C@@H](CS)C(=O)N[C@@H](CCC(N)=O)C(=O)N[C@@H](CCC(=O)O)C(=O)N(C)CC(=O)N[C@@H](C)C(=O)N[C@@H](C)C(=O)O)[C@@H](C)CC)[C@@H](C)CC` [Peptide R13SarP7Sar, IALILE(Sar)ICCQE(Sar)AA] (H-IALILE[Sar]ICCQE[Sar]AA-OH), in “Solubility in water” (Table 7, PEGylated and Sar/Ala substitution peptides), the Solubility in water entry is on record as “No”.

In the case of “dPEG24-IALILEPICCQERAA (cysteine pairing not given here) [dPEG24-PA]”, in series [2], the “Complement inhibition in hemolytic assay” value is “varying degrees of complement inhibition”.

On to “dPEG24-IALILEPICCQERAA-dPEG24 (cysteine pairing not given here) [dPEG24-PA-dPEG24]”, for which the “Complement inhibition in hemolytic assay” value in series [2] was “varying degrees of complement inhibition”.

These data come from US12297235B2, “Synthetic peptide compounds and methods of use” (REALTA HOLDINGS, LLC, priority 2015, dated 2025).
